Patent EP0178388A1, “Quinolinecarboxylic acid derivatives” (KYORIN PHARMACEUTICAL CO., LTD., priority 1984, dated 1986)
≈ marks a conversion by molar mass, not a printed value. Where a name gives a salt, the structure may show the parent alone. Read-outs that look alike come from different tables or passages of the source.

Experiments:
[1] = system: Bacillus subtilis PCI 219; test: In vitro antibacterial activity, MIC (standard strain); assay type: cell-based; details: PCI219; Bacillus subtilis PCI 219, 10^6 cells/ml, standard strain; read-out: MIC
[2] = system: Klebsiella pneumoniae I-220S; test: as above; assay type: cell-based; details: I220S; Klebsiella pneumoniae I-220S, 10^6 cells/ml, standard strain; read-out: MIC
[3] = system: S. pyogenes 3102; test: In vitro antibacterial activity, MIC (clinical isolates); assay type: cell-based; details: Streptococcus pyogenes; S. pyogenes 3102, 10^6 cells/ml, clinical isolate
[4] = system: B. fragilis 0558; test: In vitro antibacterial activity, MIC (standard strain); assay type: cell-based; details: Bacteroides fragilis; B. fragilis 0558, 10^6 cells/ml, standard strain; read-out: MIC
[5] = system: S. epidermidis IID 866; test: as above; assay type: cell-based; details: Staphylococcus epidermidis, IID866, S. epidermidis IID 866, 10^6 cells/ml
[6] = system: S. agalactiae 4368; test: In vitro antibacterial activity, MIC (clinical isolates); assay type: cell-based; details: Streptococcus agalactiae; S. agalactiae 4368, 10^6 cells/ml, clinical isolate
[7] = system: P. mirabilis IID 994; test: In vitro antibacterial activity, MIC (standard strain); assay type: cell-based; details: Proteus mirabilis, IID994, P. mirabilis IID 994, 10^6 cells/ml
[8] = system: Pst. micros UPI 5464-1; test: as above; assay type: cell-based; details: Parvimonas micra, UPI54641, Pst. micros UPI 5464-1, 10^6 cells/ml
[9] = system: S. agalactiae 4342; test: In vitro antibacterial activity, MIC (clinical isolates); assay type: cell-based; details: Streptococcus agalactiae; S. agalactiae 4342, 10^6 cells/ml, clinical isolate
[10] = system: C. perfringens KYA (ATCC) 13123; test: microbe, parasite or virus in culture; assay type: cell-based; details: Clostridium perfringens
[11] = system: Veillonella parvula KYA 10790; test: In vitro antibacterial activity, MIC (standard strain); assay type: cell-based; details: KYA10790, Veillonella parvula KYA 10790, 10^6 cells/ml
[12] = system: E. coli ML4707; test: In vivo antibacterial activity against systemic infection in mice;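 also: ED50 in mg/kg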; details: Escherichia coli, ML4707, po, 1 h, E. coli ML4707, mice (ICR-S), intraperitoneal infection, oral at 1 hour after infection, read-out: ED50
Method: Experiment 2 In vivo antibacterial activity against systemic infection in mice (ICR-S)
The infections were produced by intraperitoneal infection of a suspension of the bacterial culture corresponding to the germ studied. The product was administered orally at 1 hour after the infection. The 50% effective dose (ED50) which protects 50% of the animals from death caused by the infection was determined from the relation between dosage and survival rate.

[13] = system: K. pneumoniae KY(GN)6445; test: In vitro antibacterial activity, MIC (standard strain); assay type: cell-based; details: Klebsiella pneumoniae
[14] = system: S. pneumoniae 3227; test: In vitro antibacterial activity, MIC (clinical isolates); assay type: cell-based; details: Streptococcus pneumoniae; S. pneumoniae 3227, 10^6 cells/ml, clinical isolate
[15] = system: S. pyogenes 3107; test: as above; assay type: cell-based; details: Streptococcus pyogenes; S. pyogenes 3107, 10^6 cells/ml, clinical isolate
[16] = system: S. aureus IID 670 (Terajima); test: In vitro antibacterial activity, MIC (standard strain); assay type: cell-based; details: Staphylococcus aureus, IID670, 10^6 cells/ml
[17] = system: S. faecalis 401; test: In vitro antibacterial activity, MIC (clinical isolates); assay type: cell-based; details: Enterococcus faecalis; S. faecalis 401, 10^6 cells/ml, clinical isolate
[18] = system: S. pneumoniae IID 552; test: In vitro antibacterial activity, MIC (standard strain); assay type: cell-based; details: Streptococcus pneumoniae, IID552, S. pneumoniae IID 552, 10^6 cells/ml
[19] = system: Proteus vulgaris IFO 3167; test: as above; assay type: cell-based; details: Proteus vulgaris, IFO3167
[20] = system: S. pneumoniae 2054; test: In vitro antibacterial activity, MIC (clinical isolates); assay type: cell-based; details: Streptococcus pneumoniae; S. pneumoniae 2054, 10^6 cells/ml, clinical isolate
[21] = system: Salmonella enteritidis IID 604; test: In vitro antibacterial activity, MIC (standard strain); assay type: cell-based; details: Salmonella enterica; Salmonella enteritidis IID 604, 10^6 cells/ml, standard strain; read-out: MIC
[22] = system: P. morganii IID 602; test: as above; assay type: cell-based; details: Morganella morganii, IID602; P. morganii IID 602, 10^6 cells/ml, standard strain; read-out: MIC
[23] = system: S. faecalis 214; test: In vitro antibacterial activity, MIC (clinical isolates); assay type: cell-based; details: Enterococcus faecalis; S. faecalis 214, 10^6 cells/ml, clinical isolate
[24] = system: B. thetaiotaomicron (0661); test: In vitro antibacterial activity, MIC (standard strain); assay type: cell-based; details: Bacteroides thetaiotaomicron; B. thetaiotaomicron (0661), 10^6 cells/ml, standard strain; read-out: MIC
[25] = system: S. pyogenes IID 692; test: as above; assay type: cell-based; details: Streptococcus pyogenes, IID692, S. pyogenes IID 692, 10^6 cells/ml
[26] = system: P. aeruginosa IFO 12689; test: as above; assay type: cell-based; details: Pseudomonas aeruginosa, IFO12689, P. aeruginosa IFO 12689, 10^6 cells/ml, standard strain; read-out: MIC
[27] = system: Shigella sonnei IID 969; test: as above; assay type: cell-based; details: IID969, Shigella sonnei IID 969, 10^6 cells/ml
Method: The in vitro antibacterial activity has been investigated, the minimun inhibitory concentration (MIC) was determined in accordance with the method recommended by Japan Society of Chemotherapy.

[28] = system: S. agalactiae 4468; test: In vitro antibacterial activity, MIC (clinical isolates); assay type: cell-based; details: Streptococcus agalactiae; S. agalactiae 4468, 10^6 cells/ml, clinical isolate
[29] = system: Streptococcus pyogenes S-8; test: In vitro antibacterial activity, MIC (standard strain); assay type: cell-based; details: S8, Streptococcus pyogenes S-8, 10^6 cells/ml
[30] = system: F. varium KYA (ATCC) 8501; test: as above; assay type: cell-based; details: Fusobacterium varium, F. varium KYA (ATCC) 8501, 10^6 cells/ml
[31] = system: Enterobacter cloacae IID 977; test: as above; assay type: cell-based; details: IID977, Enterobacter cloacae IID 977, 10^6 cells/ml
[32] = challenge dose 8.3 x 10^6 cfu/mouse (part 2)

SMILES | MIC [1] | MIC [2] | MIC [3] | MIC [4] | MIC [5] | MIC [6] | MIC [7] | MIC [8] | MIC [9] | MIC [10] | MIC [11] | ED50 [12, 32] | MIC [14] | MIC [15] | MIC [16] | MIC [17] | MIC [18] | MIC [19] | MIC [20] | MIC [21] | further results
CC1CN(c2c(F)cc3c(=O)c(C(=O)O)cn(C4CC4)c3c2F)CCN1 (stereo not drawn) [Example 2, l-Cyclopropyl-6,8-difluoro-l,4-dihydro-7-(3-methyl-l-piperazinyl)-4-oxoquinoline-3-carboxylic acid] | 0.05 µg/mL (≈ 0.138 µM) | 0.05 µg/mL (≈ 0.138 µM) | 0.78 µg/mL (≈ 2.15 µM) | 0.78 µg/mL (≈ 2.15 µM) | 0.2 µg/mL (≈ 0.55 µM) | 0.78 µg/mL (≈ 2.15 µM) | 0.025 µg/mL (≈ 0.0688 µM) | 0.2 µg/mL (≈ 0.55 µM) | 0.78 µg/mL (≈ 2.15 µM) | 0.78 µg/mL (≈ 2.15 µM) | 0.2 µg/mL (≈ 0.55 µM) | 0.17 mg/kg | 1.56 µg/mL (≈ 4.29 µM) | 0.78 µg/mL (≈ 2.15 µM) | 0.2 µg/mL (≈ 0.55 µM) | 1.56 µg/mL (≈ 4.29 µM) | 0.78 µg/mL (≈ 2.15 µM) | 0.0125 µg/mL (≈ 0.0344 µM) | 1.56 µg/mL (≈ 4.29 µM) | 0.025 µg/mL (≈ 0.0688 µM) | ED50 ([12]; challenge dose 6.0 x 10^6 cfu/mouse (part 1)): 0.09 mg/kg; MIC [13]: 0.0125 µg/mL (≈ 0.0344 µM); MIC [22]: 0.05 µg/mL (≈ 0.138 µM); MIC [23]: 0.78 µg/mL (≈ 2.15 µM); MIC [24]: 3.13 µg/mL (≈ 8.61 µM); MIC [25]: 0.78 µg/mL (≈ 2.15 µM); MIC [26]: 0.78 µg/mL (≈ 2.15 µM); MIC [27]: 0.0125 µg/mL (≈ 0.0344 µM); MIC [28]: 0.78 µg/mL (≈ 2.15 µM); MIC [29]: 0.78 µg/mL (≈ 2.15 µM); MIC [30]: 6.25 µg/mL (≈ 17.2 µM); MIC [31]: 0.05 µg/mL (≈ 0.138 µM)
CC1CN(c2c(F)cc3c(=O)c(C(=O)O)cn(C4CC4)c3c2Cl)CCN1 (stereo not drawn) [Example 5, 8-Chloro-l-cyclopropyl-6-fluoro-1,4-dihydro-7-(3-methyl-1-piperazinyl)-4-oxoquinoline-3-carboxylic acid hydrochloride] | 0.025 µg/mL | 0.05 µg/mL | 0.39 µg/mL | 0.2 µg/mL | 0.1 µg/mL | 0.39 µg/mL | 0.025 µg/mL | 0.2 µg/mL | 0.78 µg/mL | 0.78 µg/mL | 0.2 µg/mL | 0.12 mg/kg | 0.78 µg/mL | 0.39 µg/mL | 0.1 µg/mL | 0.78 µg/mL | 0.78 µg/mL | 0.0125 µg/mL | 0.78 µg/mL | 0.025 µg/mL | MIC ([13]; K. pneumoniae KY(GN)6445, 10^6 cells/ml, standard strain, read-out: MIC): 0.025 µg/mL; MIC [22]: 0.1 µg/mL; MIC [23]: 0.78 µg/mL; MIC [24]: 1.56 µg/mL; MIC [25]: 0.78 µg/mL; MIC [26]: 1.56 µg/mL; MIC [27]: 0.0125 µg/mL; MIC [28]: 0.39 µg/mL; MIC [29]: 0.39 µg/mL; MIC [30]: 3.13 µg/mL; MIC [31]: 0.05 µg/mL
